The source made the active and inactive calls.
Assays:
[1] = test system: H9c2; experiment: cells; format: functional, cell-based; settings: Rattus norvegicus, H9c2, Myocardium;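 also: confirmatory concentration-response retest of ultra-high-throughput screening hits for modulation of myocardial damage; cell death induced by hydrogen peroxide oxidative stress; compound pretreatment for 60 min then peroxide exposure for 2 h; potency is for protecting the cells against peroxide damage rather than for killing them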
[2] = biological target: Cytochrome P450 2C9 (Homo sapiens, UniProt P11712)
[3] = biological target: Cytochrome P450 2C19 (Homo sapiens, UniProt P33261); experiment: Cytochrome panel assay with activity outcomes. Panel member name: p450-cyp2c19 Compounds with AC50 equal or less than 10 uM are considered active; format: functional; settings: read-out: AC50
[4] = biological target: Cytochrome P450 3A4 (Homo sapiens, UniProt P08684);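 also: CYP3A4 tested as one member of a cytochrome P450 panel screen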
[5] = biological target: T1, Heat shock factor protein 1 (Mus musculus, UniProt P38532); experiment: HSF1 potentiators in luciferase reporter cells, confirmation, cell-based, NIH3T3, luminescence, dose retest (AID 435004); format: functional;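 also: stress induced by proteasome inhibitor MG132 added 30 min after compound; luciferase reporter driven by HSF1 response element in NIH3T3 cells; actives raise luminescence as potentiators of the MG132 stress response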
T1 sequence (P38532 whole entry): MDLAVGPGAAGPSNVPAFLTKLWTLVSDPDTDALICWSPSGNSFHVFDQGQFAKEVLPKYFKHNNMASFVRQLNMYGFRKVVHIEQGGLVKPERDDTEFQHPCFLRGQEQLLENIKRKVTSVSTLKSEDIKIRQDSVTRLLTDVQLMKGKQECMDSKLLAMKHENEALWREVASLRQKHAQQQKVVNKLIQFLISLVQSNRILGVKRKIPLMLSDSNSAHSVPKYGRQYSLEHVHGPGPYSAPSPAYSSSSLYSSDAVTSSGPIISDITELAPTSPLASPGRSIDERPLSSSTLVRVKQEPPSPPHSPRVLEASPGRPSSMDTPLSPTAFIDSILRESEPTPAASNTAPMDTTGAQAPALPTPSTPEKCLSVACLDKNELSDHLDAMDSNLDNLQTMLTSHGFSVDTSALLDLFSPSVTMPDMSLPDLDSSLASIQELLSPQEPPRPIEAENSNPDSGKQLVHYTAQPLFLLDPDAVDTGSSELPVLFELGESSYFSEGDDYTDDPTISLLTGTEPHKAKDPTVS

[6] = Luminescence Cell-Based Dose Response HTS to Identify Inhibitors of 5'UTR Stem-Loop Driven Prion Protein mRNA Translation in H4 Neuroglioblastoma Cells. [Related pubchem assays: 1827 (Project Summary), 1813 (Primary HTS)]; format: functional
[7] = inhibitors of firefly luciferase expression or activity, dose response, H4 neuroglioma cells, luminescence (AID 1990); format: functional, cell-based
[8] = inhibitors of SNCA 5'UTR-driven reporter translation, confirmation, H4 neuroglioma cells, luminescence (AID 1988); format: functional, cell-based
[9] = Shn3 3'UTR reporter inhibitors, dose response, cell-based, Clone20 osteoblasts, firefly luciferase, cherry-picked (AID 624132); format: functional;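 also: firefly luciferase luminescence from reporter carrying the Shn3 3'UTR in osteoblasts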
[10] = biological target: T2, Cytochrome P450 1A2 (Homo sapiens, UniProt P05177);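 also: PubChem cytochrome P450 panel assay, CYP1A2 panel member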
T2 sequence (P05177 whole entry): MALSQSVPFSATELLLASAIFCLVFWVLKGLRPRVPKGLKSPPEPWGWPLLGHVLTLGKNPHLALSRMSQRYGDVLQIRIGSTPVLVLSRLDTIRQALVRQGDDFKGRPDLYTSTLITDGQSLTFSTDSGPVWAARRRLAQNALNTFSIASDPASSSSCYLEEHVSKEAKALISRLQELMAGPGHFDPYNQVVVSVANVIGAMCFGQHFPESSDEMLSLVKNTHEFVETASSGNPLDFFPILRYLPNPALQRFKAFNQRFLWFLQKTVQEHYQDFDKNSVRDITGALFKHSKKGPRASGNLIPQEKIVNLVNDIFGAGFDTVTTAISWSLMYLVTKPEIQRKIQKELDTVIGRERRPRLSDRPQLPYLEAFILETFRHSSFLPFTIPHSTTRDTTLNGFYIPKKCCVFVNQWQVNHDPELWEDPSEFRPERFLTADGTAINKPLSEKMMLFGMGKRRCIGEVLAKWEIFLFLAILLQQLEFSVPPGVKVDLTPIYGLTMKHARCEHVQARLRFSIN

[11] = biological target: Cytochrome P450 2D6 (Homo sapiens, UniProt P10635);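 also: CYP2D6 member of a cytochrome P450 panel assay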
[12] = biological target: Paired box protein Pax-8 (Homo sapiens, UniProt Q06710); experiment: inhibitors of PAX8-driven TPO luciferase reporter, dose response, RMG-I cells, cherry-pick (AID 687027); format: functional, cell-based;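 also: luciferase reporter driven by Pax8 target thyroperoxidase promoter measured by SteadyGlo luminescence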
[13] = test system: Streptococcus; experiment: Group A Streptococcus viability loss, dose response, counter-screen for streptokinase expression inhibitor project, luminescence, BacTiterGlo (AID 1915); format: functional, organism-based;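 also: potency for reduction of bacterial viability or growth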
[14] = test system: Streptococcus sp. 'group A'; experiment: growth inhibition of control SK(-) GAS strain, dose response, counter-screen for streptokinase expression inhibitor project, luminescence, kanamycin, BacTiterGlo, confirmation (AID 1900); format: functional, organism-based
[15] = biological target: T3, Streptokinase A (Streptococcus pyogenes serotype M1, UniProt P10520); experiment: S. pyogenes streptokinase expression inhibitors, potency, dose response, plasminogen activation absorbance, OD405 (AID 1914); format: functional, Streptococcus pyogenes M1 GAS;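 also: secreted streptokinase activity via plasminogen activation per viability signal from cell pellet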
T3 sequence (P10520 whole entry): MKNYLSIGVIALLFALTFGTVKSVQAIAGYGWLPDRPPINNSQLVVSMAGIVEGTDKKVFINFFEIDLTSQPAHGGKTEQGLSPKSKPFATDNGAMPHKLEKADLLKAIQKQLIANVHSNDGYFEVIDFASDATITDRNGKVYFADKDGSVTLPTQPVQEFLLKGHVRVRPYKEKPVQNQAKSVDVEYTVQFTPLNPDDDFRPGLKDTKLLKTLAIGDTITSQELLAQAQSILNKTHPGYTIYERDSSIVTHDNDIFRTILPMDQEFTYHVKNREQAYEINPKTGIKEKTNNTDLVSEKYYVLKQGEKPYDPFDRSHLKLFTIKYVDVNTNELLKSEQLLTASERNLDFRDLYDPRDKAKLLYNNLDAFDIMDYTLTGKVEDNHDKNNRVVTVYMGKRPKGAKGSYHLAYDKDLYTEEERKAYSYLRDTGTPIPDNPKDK

Chain of Cytochrome P450 2C19 (P33261 whole entry): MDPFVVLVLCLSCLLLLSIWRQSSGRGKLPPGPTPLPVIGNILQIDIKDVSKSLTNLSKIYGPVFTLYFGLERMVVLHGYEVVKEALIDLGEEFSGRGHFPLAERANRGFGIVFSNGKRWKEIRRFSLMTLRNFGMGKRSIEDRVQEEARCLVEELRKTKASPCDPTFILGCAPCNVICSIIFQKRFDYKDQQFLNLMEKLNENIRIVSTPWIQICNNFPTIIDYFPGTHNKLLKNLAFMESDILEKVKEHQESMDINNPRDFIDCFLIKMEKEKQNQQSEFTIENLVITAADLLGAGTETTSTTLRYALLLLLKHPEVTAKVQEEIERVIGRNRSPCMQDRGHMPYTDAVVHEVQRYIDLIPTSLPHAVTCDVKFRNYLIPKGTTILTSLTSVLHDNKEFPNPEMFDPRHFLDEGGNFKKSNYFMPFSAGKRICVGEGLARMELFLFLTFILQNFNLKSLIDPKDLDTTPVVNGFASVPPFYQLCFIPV
Chain of Cytochrome P450 2D6 (P10635 whole entry): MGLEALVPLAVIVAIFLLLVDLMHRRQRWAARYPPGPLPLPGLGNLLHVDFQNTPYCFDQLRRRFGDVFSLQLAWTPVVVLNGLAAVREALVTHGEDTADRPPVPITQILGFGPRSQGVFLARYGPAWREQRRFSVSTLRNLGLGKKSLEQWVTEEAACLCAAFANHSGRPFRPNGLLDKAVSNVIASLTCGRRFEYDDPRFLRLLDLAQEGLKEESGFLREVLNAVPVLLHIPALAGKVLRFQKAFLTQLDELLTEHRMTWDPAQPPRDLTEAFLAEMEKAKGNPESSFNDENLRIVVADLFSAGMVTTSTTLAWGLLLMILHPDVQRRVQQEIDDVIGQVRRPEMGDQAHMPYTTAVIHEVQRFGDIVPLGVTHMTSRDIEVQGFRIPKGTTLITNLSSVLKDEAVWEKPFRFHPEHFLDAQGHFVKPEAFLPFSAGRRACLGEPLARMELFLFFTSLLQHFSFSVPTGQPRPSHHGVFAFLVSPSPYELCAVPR
Chain of Cytochrome P450 2C9 (P11712 whole entry): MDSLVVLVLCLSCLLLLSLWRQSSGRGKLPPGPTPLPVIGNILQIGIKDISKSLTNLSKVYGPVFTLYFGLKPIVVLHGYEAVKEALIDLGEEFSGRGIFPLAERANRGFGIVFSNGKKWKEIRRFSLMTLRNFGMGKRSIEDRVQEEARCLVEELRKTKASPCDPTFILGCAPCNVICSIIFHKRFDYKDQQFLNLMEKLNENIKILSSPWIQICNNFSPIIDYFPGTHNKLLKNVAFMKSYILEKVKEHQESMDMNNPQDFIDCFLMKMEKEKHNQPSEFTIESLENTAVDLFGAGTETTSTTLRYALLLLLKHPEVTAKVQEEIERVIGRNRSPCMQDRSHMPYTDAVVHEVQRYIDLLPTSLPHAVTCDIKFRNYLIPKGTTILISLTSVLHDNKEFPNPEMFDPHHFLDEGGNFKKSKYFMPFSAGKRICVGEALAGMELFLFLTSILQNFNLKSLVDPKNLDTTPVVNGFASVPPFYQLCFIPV
Chain of Cytochrome P450 3A4 (P08684 whole entry): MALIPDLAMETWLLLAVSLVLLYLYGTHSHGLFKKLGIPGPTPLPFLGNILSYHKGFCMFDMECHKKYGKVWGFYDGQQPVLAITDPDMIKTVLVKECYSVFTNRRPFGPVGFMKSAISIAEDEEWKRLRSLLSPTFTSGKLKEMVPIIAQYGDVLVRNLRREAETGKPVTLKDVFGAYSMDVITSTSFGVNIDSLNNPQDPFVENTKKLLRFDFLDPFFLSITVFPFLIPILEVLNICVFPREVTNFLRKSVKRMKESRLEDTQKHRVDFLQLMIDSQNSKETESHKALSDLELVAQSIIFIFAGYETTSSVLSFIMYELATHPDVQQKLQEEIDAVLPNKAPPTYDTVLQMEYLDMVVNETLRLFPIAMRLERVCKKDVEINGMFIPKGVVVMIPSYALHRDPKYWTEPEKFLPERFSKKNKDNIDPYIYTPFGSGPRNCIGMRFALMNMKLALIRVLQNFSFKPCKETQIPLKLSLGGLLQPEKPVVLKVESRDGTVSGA
Chain of Paired box protein Pax-8 (Q06710 whole entry): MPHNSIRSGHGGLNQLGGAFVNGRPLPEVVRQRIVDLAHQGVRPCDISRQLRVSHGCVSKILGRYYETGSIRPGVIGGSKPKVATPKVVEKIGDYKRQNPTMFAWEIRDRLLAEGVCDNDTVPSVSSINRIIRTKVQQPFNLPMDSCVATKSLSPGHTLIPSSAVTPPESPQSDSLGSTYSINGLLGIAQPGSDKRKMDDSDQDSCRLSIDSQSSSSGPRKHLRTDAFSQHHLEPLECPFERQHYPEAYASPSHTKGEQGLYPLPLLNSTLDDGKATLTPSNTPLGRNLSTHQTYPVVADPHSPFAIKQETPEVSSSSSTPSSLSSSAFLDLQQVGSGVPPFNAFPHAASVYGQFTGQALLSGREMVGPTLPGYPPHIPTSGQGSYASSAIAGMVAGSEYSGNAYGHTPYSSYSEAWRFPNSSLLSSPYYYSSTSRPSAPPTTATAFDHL

CC(=O)Nc1cccc(-c2cc(NC=O)c3ncc(-c4ccc(C(C)=O)cc4)n3c2)c1
IC50 [1]: 11.2 µM (active)

OCCN1CCN(c2nc(N3CCCCC3)nc(N3CCCCC3)n2)CC1
AC50 [2]: 15.8 µM (inconclusive)
AC50 [3]: 39.8 µM (inconclusive)
AC50 [4]: 14.1 µM (inconclusive)

O=C(CC(c1ccco1)S(=O)(=O)c1ccccc1)c1ccc(F)cc1 (centres undefined)
EC50 [5]: > 260 µM (inactive)

COc1ccc(/C=N/NC(=O)c2ccco2)cc1Cn1nc(C)c([N+](=O)[O-])c1C
EC50 [6]: > 120 µM (not active)
EC50 [7]: > 120 µM (not active)
EC50 [8]: > 120 µM (not active)

COc1cc(NC(=O)c2cc3c(Cl)nc4ccccc4c3s2)cc(OC)c1OC
AC50 [9]: 24.4 µM (active)

COc1cc(C(=O)Nc2ccc(S(=O)(=O)N3CCc4ccccc43)cc2)cc(OC)c1OC
EC50 [5]: > 260 µM (inactive)

Cc1ccc(S(=O)(=O)N/N=C/c2cccn2-c2ccc(Cl)cc2)cc1
AC50 [2]: 12.6 µM (inconclusive)
AC50 [3]: 0.0501 µM (inconclusive)
AC50 [10]: 12.6 µM (inconclusive)

Cc1nc2cncnc2n(Cc2ccc(F)cc2)c1=O
AC50 [2]: 25.1 µM (inconclusive)
AC50 [3]: 39.8 µM (inconclusive)
AC50 [4]: 15.8 µM (inconclusive)

COc1ccc(CNc2nc(-c3ccc(N(C)C)cc3)nc3ccccc23)c(OC)c1
AC50 [11]: 25.1 µM (inconclusive)
AC50 [4]: 5.01 µM (inconclusive)

C=CC[C@@H](CC(=O)N[C@H](CO)Cc1ccccc1)C(=O)N[C@H](COC(=O)[C@@H](CC=C)Cc1ccc(F)cc1)Cc1c[nH]c2ccccc12
AC50 [12]: 8.96 µM (active)

COc1ccc(C2C(C(=O)N3CCOCC3)CCC(=O)N2c2ccc(OC)cc2)cc1 (centres undefined)
AC50 [10]: 0.0631 µM (inconclusive)
AC50 [4]: 17.8 µM (inconclusive)

Cc1nn2c(-c3cccc(NC(=O)c4ccco4)c3)nnc2c2ccccc12
IC50 [1]: > 79 µM (inactive)

CN(C)S(=O)(=O)c1ccc(Cl)c(NC(=O)CN2CCCCCC2)c1
EC50 [6]: > 120 µM (not active)
EC50 [7]: > 120 µM (not active)
EC50 [8]: > 120 µM (not active)

CCOC(=O)c1cnc(Nc2nc3ccccc3o2)nc1CSc1nnc(C)s1
IC50 [1]: 13.4 µM (active)

O=C1c2ccccc2NC(c2ccc3c(c2)OCO3)N1O (centres undefined)
AC50 [2]: 14.1 µM (inconclusive)
AC50 [11]: 14.1 µM (inconclusive)
AC50 [4]: 22.4 µM (inconclusive)

CCn1cnc2c1c(=O)n(Cc1nnc3n1-c1ccccc1SC3)c(=O)n2Cc1ccccc1
EC50 [5]: > 260 µM (inactive)

COc1ccc(NC(=O)N(C)[C@H]2C[C@H]3c4[nH]c5ccc(-c6ccc7c(c6)OCO7)cc5c4CCN3C[C@H]2[C@H](C)O)cc1
IC50 [1]: > 79 µM (inactive)

Cc1ccc(-c2csc(NC(=O)Cn3[nH]c(=O)c4ccccc4c3=O)n2)cc1
IC50 [1]: > 79 µM (inactive)

O=c1c2ccccc2nnn1CSc1ncnc2ccccc12
EC50 [5]: 10.7 µM (active)

COc1nccc(-c2c(-c3ccc(F)cc3)ncn2C2CCC(O)CC2)n1 (centres undefined)
AC50 [2]: 7.94 µM (inconclusive)
AC50 [3]: 7.94 µM (inconclusive)
AC50 [11]: 12.6 µM (inconclusive)
AC50 [10]: 31.6 µM (inconclusive)

C=CCNC(=S)N/N=C/c1ccc(-c2ccc(Br)cc2)o1
EC50 [5]: 134 µM (active)

Nc1c(Cl)cc(C2=NCCn3c2c2ccc([N+](=O)[O-])cc2[n+]3[O-])cc1Cl
EC50 [6]: > 120 µM (not active)
EC50 [7]: 14.7 µM (active)
EC50 [13]: 5.67 µM (active)
EC50 [8]: 8.15 µM (active)
EC50 [14]: 2 µM (active)
EC50 [15]: > 150 µM (not active)
